Results on 6 molecules are retold here after US12691121B2, “Treatment of pulmonary arterial hypertension” (IMPERIAL COLLEGE INNOVATIONS LIMITED, priority 2020, dated 2026).

For data set [1], the system named is human pulmonary microvascular endothelial cells (HPMEC). Put plainly: DMOG-induced apoptosis in HPMEC. It is filed as cell-based. The source says:
The effects of various TSPO ligands on HPMEC under DMOG (a permeable prolyl-4-hydroxylase inhibitor which upregulates hypoxia-inducible factor and causes apoptosis) stimulation were investigated.

Another data set has as its system HPAECs. The experiment in a line: TNF-α stimulated HPAEC activation: E-selectin ELISA and cytokine array. It is filed as cell-based, human. The note with it: 10 nM and 50 nM. How it is done: HPAECs were pre-treated with XBD173 (10 nM and 50 nM) for 24 hours before TNF-α (10 ng/ml) stimulation for 8 hours. At the end of the experiment, cell numbers were counted and cell culture supernatants collected (n=4 per group, control, TNF-α, TNF-α with XBD 10 nM and 50 nM treatments) for cytokine assay using the proteome profiler human cytokine array kit (R&D systems, ARY005B) and E-selectin ELISA assay. […] Further, XBD173 observably attenuated release of multiple cytokines and chemokines (CXCL-10, RANTES, IL-6, IL-21, IL-18, CXCL11, G-CSF and CXCL12) from HPAEC in response to TNF-α stimulation.

For the next data set, the target named is T1, TSPO (Rattus norvegicus, UniProt P16257).
T1 construct: from tissue; host or cells: lungs and right ventricle of living control and monocrotaline-treated rats (in vivo PET)
The experiment in a line: 11C-PBR28 PET imaging, ligand specificity tested by XBD-173 pre-treatment. It is filed as in vivo. The note with it: rats treated with XBD-173 prior to PET imaging. How it is done: PET imaging was performed in healthy control and MCT 4 weeks rats (60 mg/kg subcutaneous injection). The uptake of TSPO PET tracer, ^11C-PBR28, was measured in the lungs and RV.

Data set [2] deals with MCT rat. The experiment in a line: MCT rat PH model: pulmonary vascular remodelling and CD68+ macrophage infiltration (histology). It is filed as in vivo. How it is done:
Modulation of TSPO by XBD-173 was assessed in MCT rats. […] Heart and lung glucose metabolism were also assessed by FDG-PET imaging.

In data set [3] the test system is HPAEC. Put plainly: Mitochondrial membrane potential in TNF-α stimulated HPAEC (TMRE). It is filed as cell-based, human. The note with it: 10 nM and 50 nM; P<0.001; recovering to levels similar to TNF-α untreated control. How it is done: (§1) Mitochondrial membrane potential was determined using 20 nM Tetramethylrhodamine, Ethyl Ester, Perchlorate (TMRE; Life technologies, T669). ROS production was detected using 5 uM CellROX Green (Life technologies, C10444). 1 ug/mL Hoechst 33342 (Life technologies, H1399) was added for nucleus staining. Images were obtained with a Zeiss Axio Observer inverted widefield microscope. […] In addition, XBD173 signifantly (P<0.001) increased the mitochondrial membrane potentials following TNF-α stimulation, with the mitochondrial membrane potentials with XBD173 treatment recovering to similar levels to those seen for the TNF-α untreated control.

The target in data set [4] is human TSPO (Homo sapiens, UniProt P30536, T147A). The note with it: human subjects with high-affinity binding of their TSPO; read-out: mean Kd, high affinity binders; cited from earlier work.
Data set [5] has as its target human TSPO (Homo sapiens, UniProt P30536). To be noted: cited from earlier work.
In data set [6] the test system is MCT rat. The experiment in a line: MCT rat PH model: pulmonary arterial pressure, RVSP, RV hypertrophy, systemic blood pressure. The class given is in vivo. How it is done:
Modulation of TSPO by XBD-173 was assessed in MCT rats. […] Heart and lung glucose metabolism were also assessed by FDG-PET imaging. […] This attenuation was dose-dependent manner. […] (data not shown).

A further data set concerns SuHx rat. Put plainly: SuHx rat model: PAP, RV hypertrophy, systolic blood pressure. It is filed as in vivo. The note with it: SuHx rats, 2 mg/kg twice a day for two weeks.
Data set [7] relates to Human pulmonary artery smooth muscle cells (PASMCs). The experiment in a line: PDGF- and hypoxia-stimulated proliferation of PASMCs. The class given is cell-based.
The test system of data set [8] is HPAEC. The experiment in a line: ROS production in TNF-α stimulated HPAEC (CellROX Green). The class given is cell-based, human. To be noted: 10 nM and 50 nM; P<0.001; levels similar to TNF-α untreated control. How it is done: as §1
The subject of data set [9] is MCT rat. Put plainly: MCT rat PH model: RV immunofluorescence (WGA cardiomyocyte size, CD31 micro-vessels). The class given is in vivo. The text has this: Bar charts illustrating the quantitative data from immunofluorescence staining. ***p<0.001.
Immunofluorescence staining was used to examine the RV structural changes. The cardiomyocyte size was quantified by wheat germ agglutinin (WGA) and the number of micro-vessels by CD31 at RV insertion point.

In data set [10] the test system is MCT rat. The experiment in a line: MCT rat PH model: MRI of RV structure and function. The class given is in vivo.
[11] abbreviates: 2 mg/Kg once and twice a day, 2-4 weeks.

Read-outs that look alike come from different tables or passages of the source.

Sequence of human TSPO (Homo sapiens, UniProt P30536, T147A) (P30536 2-169 T147A): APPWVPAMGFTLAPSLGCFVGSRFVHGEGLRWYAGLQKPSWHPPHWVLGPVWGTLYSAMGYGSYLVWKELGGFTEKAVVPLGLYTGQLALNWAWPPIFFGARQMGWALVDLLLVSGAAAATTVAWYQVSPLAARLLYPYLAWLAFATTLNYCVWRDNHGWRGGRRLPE

Turning to `CC(=O)N(Cc1ccccc1O[11CH3])c1cnccc1Oc1ccccc1` [PBR28], the “DMOG-induced apoptotic effects in HPMECs” value in data set [1] (FIG. 12D, 5 nM) is “reversed”.
Turning to `CCOC(=O)C1=C[C@]2(CC)CCCN3CCc4c(n1c1ccccc41)[C@@H]32` [Vinpocetine], the “DMOG-induced apoptotic effects in HPMECs” value in data set [1] (FIG. 12C, 800 nM) is recorded as “reversed”.
For the molecule `CCC(C)N(C)C(=O)c1cc2ccccc2c(-c2ccccc2Cl)n1` (stereo not drawn) [PK95111], the “DMOG-induced apoptotic effects in HPMECs” value in data set [1] (FIG. 12B, 3 nM, 30 nM and 300 nM) is “reversed”.
In the case of `CN1C(=O)CN=C(c2ccc(Cl)cc2)c2cc(Cl)ccc21` [Ro 5-4864], in [1] (FIG. 12E, 10 nM), the “DMOG-induced apoptotic effects in HPMECs” value was “reversed”.
As to `CCN(Cc1ccccc1)C(=O)Cn1c(=O)n(C)c2cnc(-c3ccccc3)nc21` [XBD-173, N-Ethyl-7,8-dihydro-7-methyl-8-oxo-2-phenyl-N-(phenylmethyl)-9H-purine-9-acetamide], the “activation of HPAECs by TNF-α (E-selectin expression)” value in the data set with HPAECs (24 hours pre-treatment, TNF-α 10 ng/ml 8 hours, P<0.05) is listed as “reduced”. Besides, in the data set on HPAECs (TNF-α stimulation), the CXCL11 release result is “attenuated”, the CXCL12 release result was “attenuated”, the CXCL-10 release result is “attenuated” and the G-CSF release result is “attenuated”. In the data set on HPAECs (TNF-α stimulation), the IL-6 release result is given as “attenuated”, the IL-18 release result is “attenuated”, the IL-21 release result is listed as “attenuated” and the RANTES release result is reported as “attenuated”. Further, at TSPO, the “PBR28 lung signals (11C-PBR28 PET)” value is reported as “blocked”. In addition, in the data set on MCT rat [2] (MCT rat lung), the “inflammatory cell (CD68, macrophage) infiltration” value was “attenuated”. In addition, the “pulmonary vascular remodelling (% of muscularised vessels)” value in the data set on MCT rat [2] (MCT rat, 2 mg/Kg once and twice a day, 2-4 weeks, vs 75.24 untreated MCT) is 53.57%. Moreover, in the data set with HPAEC [3], the “mitochondrial membrane potentials following TNF-α stimulation” value was “increased”. The dissociation constant (Kd) at human TSPO [4] is about 2.5 nM. Moreover, on human TSPO [5] (human subjects with both high- and low-affinity binding sites, read-out: mean Kd, mixed affinity binders), the Kd is about 11 nM. Further, at human TSPO [5] (human subjects with low-affinity binding of their TSPO, read-out: mean Kd, low affinity binders), the Kd is about 30 nM. Besides, the “DMOG-induced apoptotic effects in HPMECs” value in [1] (Example 4, FIG. 11) was “reversed”. Besides, in [1] (FIG. 12A, 10 nM, 50 nM and 100 nM), the “DMOG-induced apoptotic effects in HPMECs” value is listed as “reversed”. Moreover, in the data set on MCT rat [6] (setting [11]), the “RV/body weight (RV/BW)” value is “attenuated” and the “RVSP (RV catheterisation)” value was “attenuated”. The “RVH (RV/LV+sp ratio, dissected heart tissue)” value with MCT rat [6] (2 mg/Kg once and twice a day, 2-4 weeks, vs 57.30 untreated MCT) was 40.30. Also, in the data set with MCT rat [6] (2 mg/Kg once and twice a day, treatment from 2 weeks to 4 weeks, vs 45.37 untreated MCT), the “pulmonary arterial pressure (PAP)” value is listed as 27.23 mmHg. Also, in the data set on MCT rat [6] (data not shown), the systemic blood pressure result is “no significant effect”. In the data set on SuHx rat, the RV hypertrophy entry was “significant decrease”, the “pulmonary arterial pressure (PAP)” value was “significant decrease” and the systemic blood pressure entry is recorded as “no significant effect”. The “PDGF-stimulated proliferation of PASMCs” value in data set [7] (PDGF stimulus) is recorded as “attenuated”. Further, in data set [7] (hypoxia stimulus (O2=2%)), the “hypoxia-stimulated proliferation of PASMCs” value was “attenuated”. For the same molecule, the “ROS production following TNF-α stimulation” value in the data set on HPAEC [8] was “reduced”. For the same molecule, the “RV cardiomyocyte hypertrophy (myocyte size, WGA)” value with MCT rat [9] (MCT rat RV) is reported as “attenuated”. In the data set on MCT rat [9] (MCT rat RV insertion point), the “RV capillary density (CD31 micro-vessels)” value is on record as “increased”. In the data set with MCT rat [10], the “RV cardiac index (RVCI)” value is listed as “restoring”; the “RV dilation (RV end diastolic volume index, RVEDVI)” value is listed as “significantly reduced”; the “RV ejection fraction (RVEF)” value is “restoring”; the “RV hypertrophy as RV mass index (RVMI)” value was “reduced”. Besides, in the data set with MCT rat [10], the “RV hypertrophy as ventricular mass index (VMI)” value is “reduced” and the “ventricular-vascular coupling (Ees/Ea)” value is “restoring”.
Consider `CCNC1=Nc2ccc(Cl)cc2C(C)(c2ccccc2)O1` (stereo not drawn) [Etifoxine], for which the “DMOG-induced apoptotic effects in HPMECs” value in [1] (FIG. 12F, 10 uM) is “reversed”.
